Results: US20230416653A1, “ANTIMICROBIAL CLEANING COMPOSITIONS CONTAINING POLYURETHANE SALTED WITH BIS-BIGUANIDE FREE BASE” (Lubrizol Advanced Materials, Inc., priority 2020, published 2023)

System: Aspergillus brasiliensis
Experiment: Antimicrobial activity on ceramic tiles, visual evaluation of fungal growth
Assay type: cell-based
Settings: 10 = full fungal growth coverage, 0 = complete absence of fungal growth; tiles rinsed with 0.1 wt. % SLS; incubated 7 days at 25° C.
Description: A 2 wt. % aqueous dispersion of Polymer 1 salted with 2 wt. % chlorhexidine free base was assayed for antimicrobial activity on ceramic tiles. Control formulations containing Polymer 2 (no acid groups) 2 wt. % aqueous dispersion combined with 2 wt. % chlorhexidine gluconate, chlorhexidine (1 wt. % active material in sterilized deionized water) and benzalkonium chloride (1 wt. % active material in sterilized deionized water) were prepared for comparison. The tiles (Homebase Gloss Mini-Metro wall tiles measuring 7.5 cm×15 cm×0.6 cm thick) were sprayed with the dispersion of the salted Polymer 1 and the control formulations. The treated tiles were dried overnight in a biological control cabinet (Nuaire model no. NU 4005) at 20° C. and 45% RH. The dried tiles were removed from the biological control cabinet and each tile was rinsed with 400 ml of a sterile solution of 0.1 wt. % sodium laurel sulfate in deionized water. A spore suspension of Aspergillus brasiliensis cultured on malt extract agar was prepared in sterilized deionized water (concentration: 1×10^8 cfu/ml) and applied to each tile with a handheld spray bottle (nozzle set on spray position). The treated tiles were placed in the biological cabinet at 20° C. and 45% RH and dried for 30 mins. […] After incubating for 7 days the tiles were removed and visually evaluated for fugal growth.

Row | Compound | Fungal Coverage Rating (average of 10 treated tiles)
1 | N=C(NCCCCCCNC(=N)NC(=N)Nc1ccc(Cl)cc1)NC(=N)Nc1ccc(Cl)cc1 [Control (chlorhexidine), chlorhexidine] | 5
2 | benzalkonium chloride [Control (benzalkonium chloride)] | 6
